Like-named read-outs stand apart in the source and are kept apart here.
Legend:
Type in all cases: cell-based
[1] = tested on: 100 A. baumannii strains (50 MDR, 50 non-MDR); test: MIC broth microdilution at IHMA Europe, panel of 100 strains; conditions: for MIC / MIC50 / MIC90: Acinetobacter baumannii; for MIC50: read-out: MIC 50; for MIC90: read-out: MIC 90
P. aeruginosa ATCC 27853 = test: IHMA QC MIC
E. coli ATCC 25922 = test: IHMA QC MIC; conditions: Escherichia coli, ATCC25922; read-out: MIC (QC, repeated tests)

CN(C)c1cc(NC(=O)CNC(C)(C)C)c(O)c2c1C[C@H]1C[C@H]3[C@H](N(C)C)C(O)=C(C(N)=O)C(=O)[C@@]3(O)C(O)=C1C2=O [Tigecycline, tigecycline]
4 µg/mL: MIC ([1]; A. baumannii IHMA 2155340, Kenya 2020, MDR, read-out: MIC) | MIC ([1]; A. baumannii IHMA 2156634, Turkey 2020, MDR, read-out: MIC) | MIC ([1]; A. baumannii IHMA 2156709, Turkey 2020, MDR, read-out: MIC) | MIC ([1]; A. baumannii IHMA 2177489, Lithuania 2020, MDR, read-out: MIC) | MIC ([1]; A. baumannii IHMA 2196914, South Africa 2020, MDR, read-out: MIC) | MIC ([1]; A. baumannii IHMA 2231797, Greece 2020, MDR, read-out: MIC) | MIC ([1]; A. baumannii IHMA 2233430, Kazakhstan 2020, MDR, read-out: MIC) | MIC ([1]; A. baumannii IHMA 2274364, South Africa 2020, MDR, read-out: MIC) | MIC ([1]; A. baumannii IHMA 2316205, United States 2020, MDR, read-out: MIC) | MIC90 ([1]; MDR n = 50) | MIC90 ([1]; all isolates n = 100) | MIC ([1]; non-MDR n = 50, read-out: MAX (maximum MIC)) | MIC (QC, repeated tests) (P. aeruginosa ATCC 27853)
0.25 µg/mL: MIC ([1]; A. baumannii IHMA 2157614, Australia 2020, Non-MDR, read-out: MIC) | MIC ([1]; A. baumannii IHMA 2178574, Ukraine 2020, Non-MDR, read-out: MIC) | MIC ([1]; A. baumannii IHMA 2180134, Malaysia 2020, Non-MDR, read-out: MIC) | MIC ([1]; A. baumannii IHMA 2183849, Argentina 2020, Non-MDR, read-out: MIC) | MIC ([1]; A. baumannii IHMA 2215307, Hong Kong 2020, Non-MDR, read-out: MIC) | MIC ([1]; A. baumannii IHMA 2223200, Colombia 2020, Non-MDR, read-out: MIC) | MIC ([1]; A. baumannii IHMA 2261633, Canada 2020, Non-MDR, read-out: MIC) | MIC50 ([1]; non-MDR n = 50)
0.5 µg/mL: MIC ([1]; A. baumannii IHMA 2193607, Venezuela 2020, MDR, read-out: MIC) | MIC ([1]; A. baumannii IHMA 2212575, Hungary 2020, Non-MDR, read-out: MIC) | MIC ([1]; A. baumannii IHMA 2224303, Panama 2020, Non-MDR, read-out: MIC) | MIC ([1]; MDR n = 50, read-out: MIN (minimum MIC)) | MIC50 ([1]; all isolates n = 100) | MIC90 ([1]; non-MDR n = 50)
2 µg/mL: MIC ([1]; A. baumannii IHMA 2180142, Malaysia 2020, MDR, read-out: MIC) | MIC ([1]; A. baumannii IHMA 2196959, South Africa 2020, MDR, read-out: MIC) | MIC ([1]; A. baumannii IHMA 2203763, Spain 2020, MDR, read-out: MIC) | MIC ([1]; A. baumannii IHMA 2205144, Korea, South 2020, MDR, read-out: MIC) | MIC ([1]; A. baumannii IHMA 2206459, Taiwan 2020, MDR, read-out: MIC) | MIC ([1]; A. baumannii IHMA 2216586, Taiwan 2020, MDR, read-out: MIC) | MIC ([1]; A. baumannii IHMA 2224017, Panama 2020, MDR, read-out: MIC) | MIC ([1]; A. baumannii IHMA 2233099, Guatemala 2020, MDR, read-out: MIC) | MIC ([1]; A. baumannii IHMA 2274234, South Africa 2020, MDR, read-out: MIC) | MIC ([1]; A. baumannii IHMA 2275751, Jordan 2020, MDR, read-out: MIC) | MIC50 ([1]; MDR n = 50)
0.06 µg/mL: MIC ([1]; all isolates n = 100, read-out: MIN (minimum MIC)) | MIC ([1]; non-MDR n = 50, read-out: MIN (minimum MIC))
1 µg/mL: MIC ([1]; A. baumannii IHMA 2181370, Morocco 2020, MDR, read-out: MIC) | MIC ([1]; A. baumannii IHMA 2183729, Argentina 2020, MDR, read-out: MIC) | MIC ([1]; A. baumannii IHMA 2193375, Venezuela 2020, MDR, read-out: MIC) | MIC ([1]; A. baumannii IHMA 2195460, Italy 2020, MDR, read-out: MIC) | MIC ([1]; A. baumannii IHMA 2238964, Thailand 2020, MDR, read-out: MIC) | MIC ([1]; A. baumannii IHMA 2261047, Belgium 2020, MDR, read-out: MIC)
0.12 µg/mL: MIC ([1]; A. baumannii IHMA 2184382, Japan 2020, Non-MDR, read-out: MIC) | MIC ([1]; A. baumannii IHMA 2193485, Venezuela 2020, Non-MDR, read-out: MIC) | MIC ([1]; A. baumannii IHMA 2206507, Taiwan 2020, Non-MDR, read-out: MIC) | MIC ([1]; A. baumannii IHMA 2233548, Kazakhstan 2020, Non-MDR, read-out: MIC) | MIC ([1]; A. baumannii IHMA 2239052, Thailand 2020, Non-MDR, read-out: MIC) | MIC ([1]; A. baumannii IHMA 2275237, Chile 2020, Non-MDR, read-out: MIC) | MIC (E. coli ATCC 25922)
8 µg/mL: MIC ([1]; A. baumannii IHMA 2177232, Lithuania 2020, MDR, read-out: MIC) | MIC ([1]; MDR n = 50, read-out: MAX (maximum MIC; all strains inhibited)) | MIC ([1]; all isolates n = 100, read-out: MAX (maximum MIC; all strains inhibited)) | MAX (maximum MIC; all strains inhibited) ([1]; MDR n = 50) | MAX (maximum MIC; all strains inhibited) ([1]; all isolates n = 100) | MIC (P. aeruginosa ATCC 27853; Pseudomonas aeruginosa, ATCC27853, read-out: MIC (QC, repeated tests))

Source: publication PMC10041525, “New Dual Inhibitors of Bacterial Topoisomerases with Broad-Spectrum Antibacterial Activity and In Vivo Efficacy against Vancomycin-Intermediate Staphylococcus aureus” (Journal of Medicinal Chemistry, 2023)
